Read-outs that look alike come from different tables or passages of the source.
Legend:
Type in all cases: in vivo
[1] = system: Eiysiphe graminis f. sp. tritici; assay: Test A: wheat powdery mildew, preventive spray on wheat seedlings; details: for Test A disease control rating: wheat powdery mildew; for Test A disease control rating (100 = 100% disease control, 0 = no disease control): wheat seedlings sprayed to run-off, inoculated the following day, rating relative to controls, unmarked compounds (standard test rate)
Protocol: (§1) The resulting test suspensions were then used in the following tests. […]
The test suspension was sprayed to the point of run-off on wheat seedlings. The following day the seedlings were inoculated with a spore dust of Eiysiphe graminis f. sp. tritici, (the causal agent of wheat powdery mildew) and incubated in a growth chamber at 20° C. for 7 days, after which disease ratings were made.
(§2) Results for Tests A-E are given in Table A. In the table, a rating of 100 indicates 100% disease control and a rating of 0 indicates no disease control (relative to the controls). A dash (-) indicates no test results. ND indicates disease control not determined due to phytotoxicity.

[2] = system: Puccinia recondita; assay: Test B: wheat leaf rust, preventive spray on wheat seedlings; details: for Test B disease control rating: wheat leaf rust; for Test B disease control rating (100 = 100% disease control, 0 = no disease control): wheat seedlings sprayed to run-off, inoculated the following day, rating relative to controls, unmarked compounds (standard test rate)
Protocol: as §1
(§3) The test suspension was sprayed to the point of run-off on wheat seedlings. The following day the seedlings were inoculated with a spore suspension of Puccinia recondita (the causal agent of wheat leaf rust) and incubated in a saturated atmosphere at 20° C. for 24 h, and then moved to a growth chamber at 20° C. for 6 days, after which disease ratings were made.
as §2

[3] = system: Pyricularia oryzae; details: for Test C disease control rating: rice blast; for Test C disease control rating (100 = 100% disease control, 0 = no disease control): rice seedlings sprayed to run-off, inoculated the following day, rating relative to controls, unmarked compounds (standard test rate)
[4] = system: Phytophthora infestans; details: for Test D disease control rating: tomato late blight; for Test D disease control rating (100 = 100% disease control, 0 = no disease control): tomato seedlings sprayed to run-off, inoculated the following day, rating relative to controls, unmarked compounds (standard test rate)
[5] = system: Botrytis cinerea; assay: Test E: gray mold, preventive spray on cucumber seedlings; details: for Test E disease control rating: gray mold on cucumber; for Test E disease control rating (100 = 100% disease control, 0 = no disease control): cucumber seedlings sprayed to run-off, inoculated the following day, rating relative to controls, unmarked compounds (standard test rate)
Protocol: The resulting test suspensions were then used in the following tests. Spraying these 200 ppm test suspensions to the point of run-off on the test plants is the equivalent of a rate of 500 g/ha.
as §3, with “cucumber” for “wheat”, “Botrytis cinerea” for “Puccinia recondita”, “gray mold on many crops)” for “wheat leaf rust)”, “48” for “24”, “and” for “and then”, “5” for “6”
as §2

[6] = 100 = 100% disease control, 0 = no control relative to controls, unmarked entries (standard test concentration)
[7] = 100 = 100% disease control, 0 = no control, unmarked entries (standard test concentration)

Row | Compound | Test A disease control rating [1, 6] | Test B disease control rating [2, 7] | Test C disease control rating [3, 7] | Test D disease control rating [4, 7] | Test E disease control rating [5, 7] | also measured
1 | CCC1(C(=O)NC(C)CCn2cc(Cl)cc2C#N)C(C)C1(Cl)Cl (mixture of isomers) [compound 144] | 0% | 28% | 53% | 0% | 0% | 
2 | C#CC(C)(C)C(C#N)C(=O)NC(C)COc1cc(F)ccc1OC(F)F (mixture of isomers) [compound 295] |  |  |  |  |  | Test A disease control rating (100 = 100% disease control, 0 = no disease control) [1]: 0%; Test B disease control rating (100 = 100% disease control, 0 = no disease control) [2]: 0%; Test C disease control rating (100 = 100% disease control, 0 = no disease control) [3]: 100%; Test D disease control rating (100 = 100% disease control, 0 = no disease control) [4]: 0%; Test E disease control rating (100 = 100% disease control, 0 = no disease control) [5]: 0%
3 | CC(COc1c(C#N)cccc1C(F)(F)F)NC(=O)C(C#N)C(C)(C)C (mixture of isomers) [compound 48] | 0% | 0% | 91% | 0% | 0% | 
4 | CCC1(C(=O)NC(C)COc2cccc(C)c2)C(C)C1(Cl)Cl (mixture of isomers) [compound 96] |  |  |  |  |  | Test A disease control rating ([1]; tested at 40 ppm): 0%; Test B disease control rating ([2]; tested at 40 ppm): 0%; Test C disease control rating ([3]; tested at 40 ppm): 0%; Test D disease control rating ([4]; tested at 40 ppm): 90%; Test E disease control rating ([5]; tested at 40 ppm): 0%
5 | CCCc1cccc(C#N)c1OCC(C)NC(=O)C(C#N)C(C)C(C)(C)C (mixture of isomers) [compound 276] |  |  |  |  |  | Test A disease control rating (100 = 100% disease control, 0 = no disease control) [1]: 0%; Test B disease control rating (100 = 100% disease control, 0 = no disease control) [2]: 0%; Test C disease control rating (100 = 100% disease control, 0 = no disease control) [3]: 0%; Test D disease control rating (100 = 100% disease control, 0 = no disease control) [4]: 0%; Test E disease control rating (100 = 100% disease control, 0 = no disease control) [5]: 94%
6 | CCC1(C(=O)NC(C)COc2ccc(Cl)cc2F)C(C)C1(Cl)Cl (stereo not shown) [compound 120] |  |  |  |  |  | Test A disease control rating ([1]; tested at 40 ppm): 29%; Test B disease control rating ([2]; tested at 40 ppm): 0%; Test C disease control rating ([3]; tested at 40 ppm): 52%; Test D disease control rating ([4]; tested at 40 ppm): 19%; Test E disease control rating ([5]; tested at 40 ppm): 0%
7 | CCC1(C(=O)NC(C)COc2cc(F)c(F)cc2F)C(C)C1(Cl)Cl (stereo not shown) [compound 110] |  |  |  |  |  | Test A disease control rating ([1]; tested at 40 ppm): 90%; Test B disease control rating ([2]; tested at 40 ppm): 0%; Test C disease control rating ([3]; tested at 40 ppm): 97%; Test D disease control rating ([4]; tested at 40 ppm): 0%; Test E disease control rating ([5]; tested at 40 ppm): 0%
8 | CC(NC(=O)C(C#N)C(C)(C)C)C(Oc1ccccc1C#N)c1ccccc1 (mixture of isomers) [compound 291] |  |  |  |  |  | Test A disease control rating (100 = 100% disease control, 0 = no disease control) [1]: 0%; Test B disease control rating (100 = 100% disease control, 0 = no disease control) [2]: 0%; Test C disease control rating (100 = 100% disease control, 0 = no disease control) [3]: 90%; Test D disease control rating (100 = 100% disease control, 0 = no disease control) [4]: 0%; Test E disease control rating (100 = 100% disease control, 0 = no disease control) [5]: 0%
9 | C[C@H](COc1cc(F)cc(F)c1Cl)NC(=O)C(C#N)C(C)(C)C (single isomer, unassigned) [169b] | 0% | 0% | 97% | 0% | 0% | 
10 | CC(COc1ccccc1CC#N)NC(=O)C(C#N)C(C)(C)C (mixture of isomers) [compound 16] | 0% | 0% | 97% | 48% | 0% | 
11 | CC(COc1ccc(F)cc1C#N)NC(=O)C(C#N)C(C)(C)C (mixture of isomers) [compound 40] | 21% | 0% | 86% | 0% | 0% | 
12 | CC(C)(C)C(C#N)C(=O)NC/C=C/c1ccccc1F (racemic) [compound 178] | 0% | 0% | 53% | 0% | 58% | 
13 | CC(COc1cccc(F)c1)NC(=O)C(C#N)C(C)(C)C (single isomer, unassigned) [3c] | 38% | 0% | 100% | 4% | 0% | 
14 | CC(C)(C)C(C#N)C(=O)NC/C=C/c1cccc(Cl)c1 (racemic) [compound 180] | 61% | 0% | 74% | 76% | 0% | 
15 | CCC1(C(=O)NC(C)COn2c(C#N)cc(Cl)c2Cl)C(C)C1(Cl)Cl (mixture of isomers) [compound 139] | 71% | 0% | 91% | 0% | 0% | 
16 | CCC1(C(=O)NC(C)COc2cc(F)ccc2Br)C(C)C1(Cl)Cl (stereo not shown) [compound 125] |  |  |  |  |  | Test A disease control rating ([1]; tested at 40 ppm): 90%; Test B disease control rating ([2]; tested at 40 ppm): 0%; Test C disease control rating ([3]; tested at 40 ppm): 99%; Test D disease control rating ([4]; tested at 40 ppm): 0%; Test E disease control rating ([5]; tested at 40 ppm): 0%
17 | CC(C)(C)C(C#N)C(=O)NC/C=C/c1cccc(Br)c1 (racemic) [compound 272] |  |  |  |  |  | Test A disease control rating (100 = 100% disease control, 0 = no disease control) [1]: 76%; Test B disease control rating (100 = 100% disease control, 0 = no disease control) [2]: 0%; Test C disease control rating (100 = 100% disease control, 0 = no disease control) [3]: 53%; Test D disease control rating (100 = 100% disease control, 0 = no disease control) [4]: 63%; Test E disease control rating (100 = 100% disease control, 0 = no disease control) [5]: 0%
18 | CCc1ccccc1OCC(C)NC(=O)C(C#N)C(C)(C)C (mixture of isomers) [20a] | 63% | 0% | 97% | 70% | 0% | 
19 | CC(COc1cc(I)ccc1C#N)NC(=O)C(C#N)C(C)(C)C (mixture of isomers) [compound 46] | 0% | 0% | 53% | 66% | 0% | 
20 | C[C@H](COc1ccc(Cl)c(Cl)c1)NC(=O)C(C#N)C(C)(C)C (single isomer, unassigned) [181b] | 37% | 0% | 74% | 0% | 90% | 
21 | CCC1(C(=O)NCC=Cc2cccs2)C(C)C1(Cl)Cl (stereo not shown) [compound 164] | 0% | 0% | 72% | 56% | 7% | 
22 | C=CC(C)(C)C(C#N)C(=O)N[C@H](C)COc1cc(F)ccc1Cl (single isomer, unassigned) [192b] | 0% | 0% | 100% | 0% | 0% | 
23 | C=CCc1cc(C)ccc1OCC(C)NC(=O)C(C#N)C(C)(C)C (mixture of isomers) [compound 185] | 0% | 28% | 86% | 9% | 45% | 
24 | C[C@H](COc1ccc(F)cc1Cl)NC(=O)C(C#N)C(C)(C)C (single isomer, unassigned) [37a] | 62% | 68% | 100% | 68% | 0% | 
25 | CCC1(C(=O)NC(C)COc2cc(F)c(F)cc2C#N)C(C)C1(Cl)Cl (mixture of isomers) [compound 257] |  |  |  |  |  | Test A disease control rating (100 = 100% disease control, 0 = no disease control) [1]: 0%; Test B disease control rating (100 = 100% disease control, 0 = no disease control) [2]: 0%; Test C disease control rating (100 = 100% disease control, 0 = no disease control) [3]: 0%; Test D disease control rating (100 = 100% disease control, 0 = no disease control) [4]: 0%; Test E disease control rating (100 = 100% disease control, 0 = no disease control) [5]: 0%
26 | C[C@H](COc1cccc(Cl)c1)NC(=O)C(C#N)C(C)(C)C (single isomer, unassigned) [6e] | 0% | 0% | 100% | 96% | 70% | 

Reference: patent US6642392B1 (priority 1997, dated 2003)
